Like-named read-outs stand apart in the source and are kept apart here.
Legend:
[1] = Stability in liver microsomes (Example 21), beagle dog; format: in vitro ADME; conditions: male, pH 7.4, 0.5 mg/mL protein
Experimental: (§1) General Procedure. Briefly, test compounds (final concentration 1 μM) were incubated in duplicate with liver microsomes from male animals of the indicated species (final protein concentration 0.5 mg/mL) in 50 mM sodium phosphate buffer (pH 7.4) with or without NADPH (1 mM). Total incubation volume was 500 μL. At 0, 5, 15, 30, and 60 min, aliquots of 50 μL were withdrawn, quenched with acetonitrile (150 μL), and analyzed for parent compound remaining using a fit-for-purpose LC-MS/MS method. Intrinsic clearance and half-life were calculated. Clearance values below zero were rounded to zero.

[2] = Stability in liver microsomes (Example 21), Gottingen minipig; format: in vitro ADME; conditions: male, pH 7.4, 0.5 mg/mL protein
Experimental: as §1

[3] = Stability in liver microsomes (Example 21), cynomolgus monkey; format: in vitro ADME; conditions: male, pH 7.4, 0.5 mg/mL protein
Experimental: as §1

[4] = target: recombinant human NMDA receptor (GRIN1/GRIN2B) (Homo sapiens (Human), UniProt Q05586+Q13224); test: Unblocking kinetics at the NMDA receptor in Xenopus laevis oocytes (two-electrode voltage clamp); format: cell-based; conditions: for Unblocking T1/2 ± SEM: compounds applied at 3×IC50, -70 mV, n ≥ 5
Experimental: Compounds 2R, 2S, and 2-(2-fluorophenyl)-2-(methylamino)cyclohexan-1-one 2-F-DCK were tested for unblocking kinetics at the NMDA receptor in Xenopus laevis oocytes expressing recombinant human NMDA receptor (GRIN1/GRIN2B) (Table 22).
Experimental Procedure. Oocytes were harvested from adult Xenopus laevis and incubated in 96 well plates for two to four days prior to recordings. Plasmids containing cDNA encoding for human NMDA receptor subunits GRIN1 and GRIN2B were transcribed using the mMessage mMachine T7 transcription kit (Ambion, USA). The Roboocyte automated injection system was used for injection of cRNA coding for hNMDA receptor subunits at a concentration of 100 ng/μL per subunit. Oocytes were clamped to a holding potential of −70 mV and induced currents after compound application were sampled at 200 Hz at room temperature. Agonist induced currents were recorded with a two-electrode voltage clamp. To determine the unblocking kinetics, glutamate and glycine (3 and 10 μM, respectively) were applied to the oocytes and the current recorded for 90 s. Then, compounds were applied at 3×IC50 for 120 s and the currents recorded.

[5] = Comparative oral pharmacokinetics of 2R, 2S and 2-F-DCK in mice; format: in vivo, C57BL/6 mice; conditions: 10 mg/kg po; for Cmax / half-life / AUC(0-t): male, C57BL/6; for half-life: read-out: t1/2 (po); for AUC(0-t): read-out: AUC0-last (po) (converted)
Experimental: Animals. Male C57BL/6 mice were used in these studies. Aminals were randomly assigned to treatment groups and were fasted for 4 h before dosing.
Drugs. Test compounds were dissolved in a vehicle consisting of normal saline, They were then administered orally (po) at a dose of 10 mg/kg (calculated based on freebase) and at a volume of 10 mL/kg body weight.
Sample Collection and Bioanalysis. Blood samples (approximately 60 μL) were collected under light isoflurane anesthesia (Surgivet®) from the retro orbital plexus at 0.08, 0.25, 0.5, 1, 2, 4, 8, and 24 h (4 animals per time point). Immediately after blood collection, plasma was harvested by centrifugation at 4,000 rpm for 10 min at 4° C. and samples were stored at −70±10° C. until bioanalysis. Following blood collection, animals were immediately sacrificed, the abdominal vena-cava was cut open, and the whole body was perfused from the heart using 10 mL of normal saline, and brain samples were collected from all animals. After isolation, brain samples were rinsed three times in ice-cold normal saline (for 5-10 seconds/rinse using ˜5-10 mL normal saline in disposable petri dish for each rinse) and dried on blotting paper. Brain samples were homogenized using ice-cold phosphate-buffered saline (pH 7.4). Total homogenate volume was three times the tissue weight. All homogenates were stored at −70±10° C. until bioanalysis. For bioanalysis, 25 μL aliquots of plasma/brain study samples or spiked plasma/brain calibration standards were added to individual pre-labeled micro-centrifuge tubes followed by 100 μL of an internal standard solution (glipizide, 500 ng/mL in acetonitrile) except for blanks, where 100 μL of acetonitrile was added. Samples were vortexed for 5 minutes and then centrifuged for 10 minutes at 4,000 rpm at 4° C. Following centrifugation, 100 μL of each clear supernatant was transferred to a 96 well plate and analyzed with a fit-for-purpose LC-MS/MS method, with authentic samples of each analyte used for calibration and identification.
Data Analysis. Pharmacokinetic parameters were estimated using the non-compartmental analysis tool of Phoenix® WinNonlin software (Ver 8.0).

Sequence of recombinant human NMDA receptor (GRIN1/GRIN2B) (Q13224 whole entry, looked up, other chains not shown): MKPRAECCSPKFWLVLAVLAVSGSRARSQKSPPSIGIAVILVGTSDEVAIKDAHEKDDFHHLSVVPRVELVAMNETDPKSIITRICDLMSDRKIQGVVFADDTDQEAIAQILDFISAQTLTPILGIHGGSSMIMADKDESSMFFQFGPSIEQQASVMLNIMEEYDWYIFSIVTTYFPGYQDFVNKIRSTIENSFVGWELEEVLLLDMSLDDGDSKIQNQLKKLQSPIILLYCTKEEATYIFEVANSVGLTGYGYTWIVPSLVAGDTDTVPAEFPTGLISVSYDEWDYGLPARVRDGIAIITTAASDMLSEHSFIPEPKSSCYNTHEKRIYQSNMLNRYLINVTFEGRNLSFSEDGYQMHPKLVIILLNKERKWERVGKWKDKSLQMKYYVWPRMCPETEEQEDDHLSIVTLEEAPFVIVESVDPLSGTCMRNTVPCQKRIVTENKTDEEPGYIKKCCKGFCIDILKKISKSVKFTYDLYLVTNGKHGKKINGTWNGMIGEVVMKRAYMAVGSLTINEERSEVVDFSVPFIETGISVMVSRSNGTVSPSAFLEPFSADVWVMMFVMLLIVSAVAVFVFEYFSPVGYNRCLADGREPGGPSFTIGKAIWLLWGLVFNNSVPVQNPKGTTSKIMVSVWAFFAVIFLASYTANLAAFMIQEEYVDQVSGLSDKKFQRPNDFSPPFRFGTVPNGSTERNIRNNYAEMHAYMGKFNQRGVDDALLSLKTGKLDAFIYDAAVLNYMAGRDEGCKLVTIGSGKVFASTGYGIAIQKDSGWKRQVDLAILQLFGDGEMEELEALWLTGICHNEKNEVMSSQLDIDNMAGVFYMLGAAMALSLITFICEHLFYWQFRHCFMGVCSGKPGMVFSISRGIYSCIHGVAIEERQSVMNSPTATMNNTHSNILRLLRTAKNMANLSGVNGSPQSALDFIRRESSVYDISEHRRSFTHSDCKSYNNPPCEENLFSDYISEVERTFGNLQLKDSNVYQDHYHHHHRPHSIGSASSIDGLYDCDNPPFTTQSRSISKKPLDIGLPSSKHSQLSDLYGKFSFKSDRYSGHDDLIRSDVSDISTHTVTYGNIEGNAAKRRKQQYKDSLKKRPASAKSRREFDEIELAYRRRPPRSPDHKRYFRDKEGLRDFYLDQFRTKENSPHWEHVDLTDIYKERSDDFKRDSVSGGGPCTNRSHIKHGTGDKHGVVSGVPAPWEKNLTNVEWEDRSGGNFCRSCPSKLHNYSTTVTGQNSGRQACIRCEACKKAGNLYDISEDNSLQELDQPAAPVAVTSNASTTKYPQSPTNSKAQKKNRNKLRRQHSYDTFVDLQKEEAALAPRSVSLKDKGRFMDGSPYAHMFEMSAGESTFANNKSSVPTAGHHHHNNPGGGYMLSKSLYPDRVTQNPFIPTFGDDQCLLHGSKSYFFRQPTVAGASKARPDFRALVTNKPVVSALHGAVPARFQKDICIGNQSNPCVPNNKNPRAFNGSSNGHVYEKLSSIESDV

Compound: CN[C@@]1(c2ccc(F)cc2)CCCCC1=O [Compound 2R, (R)-2-(4-fluorophenyl)-2(methylamino)cyclohexan-1-one]
- microsomal CLint at 1 μM [1]: 10.5 µL/min/mg
- microsomal CLint at 1 μM [2]: 16.4 µL/min/mg
- microsomal CLint at 1 μM [3]: 9.5 µL/min/mg
- half-life for unblocking compared to 2-F-DCK (in words) [4]: much shorter half-life for unblocking
- Unblocking T1/2 ± SEM [4]: 22.7 ± 2.3 s
- Cmax ([5]; mouse brain): 3280 ng/g
- half-life ([5]; mouse brain): 2.97 h
- Cmax ([5]; mouse plasma): 1180 ng/mL
- AUC(0-t) ([5]; mouse plasma): 1120 ng·h/mL
- half-life ([5]; mouse plasma): 1.38 h
- AUC0-last (po) ([5]; mouse brain): 200464 ng·min/g

Compound: CN[C@]1(c2ccc(F)cc2)CCCCC1=O [Compound 2S, (S)-2-(4-fluorophenyl)-2-(methylamino)cyclohexan-1-one]
- microsomal CLint at 1 μM [1]: 7.3 µL/min/mg
- microsomal CLint at 1 μM [2]: 20.3 µL/min/mg
- microsomal CLint at 1 μM [3]: 15.3 µL/min/mg
- half-life for unblocking compared to 2-F-DCK (in words) [4]: much shorter half-life for unblocking
- Unblocking T1/2 ± SEM [4]: 27.0 ± 6.1 s
- Cmax ([5]; mouse brain): 3540 ng/g
- half-life ([5]; mouse brain): 2.18 h
- Cmax ([5]; mouse plasma): 1390 ng/mL
- AUC(0-t) ([5]; mouse plasma): 940 ng·h/mL
- half-life ([5]; mouse plasma): 1.48 h
- AUC0-last (po) ([5]; mouse brain): 123388 ng·min/g
